The results in this text go back to patent US20250109156A1, “INDOLE-CONTAINING MACROCYCLIC COMPOUNDS AND USES THEREOF” (JIANGSU AOSAIKANG PHARMACEUTICAL CO., LTD., priority 2022, published 2025).

The target of one series is CDK9-CyclinT1 (Homo sapiens (Human), UniProt P50750). The experiment in a line: In vitro CDK9-CyclinT1 enzyme activity assay (TR-FRET). Type of series: biochemical. Particulars: Ulight-4E-BP1 peptide, 25° C. 120 minutes. The method, then:
Experimental Example 3: In Vitro CDK9/[…] Enzyme Activity Assay
CDK9-CyclinT1 was purchased from CARNA. Ulight-4E-BP1 peptide, Eu-anti-phospho-tyrosine antibody, and 1× detection buffer were purchased from PerkinElmer. High-purity ATP was purchased from Promega. EDTA was purchased from Sigma. Nivo multimode microplate reader (PerkinElmer).
Preparation of kinase buffer: the kinase buffer containing 50 mM HEPES, 1 mM EDTA, 10 mM MgCl2, 0.01% Brij-35, pH 7.4.
2.38 g of HEPES, 58 mg of EDTA, 406 mg of MgCl2, and 20 mg of Brij-35 were added to 200 mL of buffer, and the pH was adjusted to 7.4.
100 μL of 1 M EDTA stock solution was mixed with 0.625 μL of 1× detection buffer and 1725 μL of distilled water to prepare the stop solution.
Enzyme, Ulight-4E-BP1 peptide, ATP, and inhibitors were diluted with the kinase buffer.
The Eu-anti-phospho-tyrosine antibody was diluted to a concentration of 8 nM/L using detection buffer.
The compounds to be tested were 4-fold diluted with a multi-channel pipette to the 8th concentration, i.e., from 400 μM to 24.4 nM, with a final DMSO concentration of 4%. The experiment was set up in duplicate wells. 2.5 μL of each concentration gradient of the inhibitor was added to the microplate, followed by 5 μL of CDK9-CyclinT1 enzyme (2 ng), and 2.5 μL of a mixture of substrate and ATP (8 mM ATP, 50 nM Ulight-4E-BP1 peptide). At this point, the final concentration gradient of the compound was 100 μM diluted to 6.1 nM. The reaction system was reacted at 25° C. for 120 minutes. After the reaction, 5 μL of stop solution was added to each well, and the reaction was continued at 25° C. for 5 minutes. After stopping the reaction, 5 μL of Eu-anti-phospho-tyrosine antibody dilution was added to each well, and the mixture was reacted at 25° C. for 60 minutes. Data were then collected using the PerkinElmer Nivo multimode microplate reader in TR-FRET mode (excitation wavelength: 320 nm, emission wavelength: 665 nm).
Using the equation (Sample−Min)/(Max−Min)*100% to convert the raw data into inhibition rate, the IC50 value may be obtained by curve fitting with four parameters (obtained by “log (inhibitor) vs. response—Variable slope” mode in GraphPad Prism). Table 1 provides the CDK9-CyclinT1 enzymatic inhibitory activity of the compounds of the present disclosure.
A general note: TR-FRET usually uses a lanthanide donor and a delayed reading to cut background.

In the next series the test system is HCC70 cells. The series can be described thus: In vitro HCC70 cell activity assay (CellTiter-Glo proliferation). Type of series: cell-based. To be noted: Homo sapiens, 96 h, 4 days incubation. The method, then:
Experimental Example 4: In Vitro HCC70 Cell Activity Assay
1640 culture medium, fetal bovine serum, penicillin/streptomycin antibiotics were purchased from WISENT. CellTiter-Glo (cell viability chemiluminescence detection reagent) reagent was purchased from Promega. HCC70 cell line was purchased from Nanjing Cobioer Biosciences Co. Ltd. Nivo multimode microplate reader (PerkinElmer).
The HCC70 cells were seeded in a white 96-well plate, with 80 μL of cell suspension per well, containing 6000 HCC70 cells each. The cell plate was incubated overnight in a CO2 incubator. The compounds to be tested were 3-fold diluted with a multi-channel pipette to the 8th concentration, i.e., diluted from 2 mM to […], and the experiment was set up in duplicate wells. 78 μL of culture medium was added to an intermediate plate, and then 2 μL of gradient diluted compound per well was transferred to the intermediate plate according to the corresponding position. After mixing well, the compound was transferred to the cell plate at 20 μL per well. The concentration of the compound transferred to the cell plate ranged from 10 μM to 1.52 nM. The cell plate was incubated in a CO2 incubator for 4 days. Another cell plate was prepared to measure the signal on the day of drug addition as the maximum value (denoted as Max in the equation below) for data analysis. 25 μL of cell viability chemiluminescence detection reagent was added to each well of this cell plate, and incubated at room temperature for 10 minutes to stabilize the luminescent signal. A multimode microplate reader was used for reading.
25 μL of cell viability chemiluminescence detection reagent was added to each well of this cell plate, and incubated at room temperature for 10 minutes to stabilize the luminescent signal. A multimode microplate reader was used for reading.
Using the equation (Sample−Min)/(Max−Min)*100% to convert the raw data into inhibition rate, the IC50 value may be obtained by curve fitting with four parameters (obtained by “log (inhibitor) vs. response—Variable slope” mode in GraphPad Prism). Table 1 provides the inhibitory activity of the compounds of the present disclosure on the proliferation of HCC70 cells.
A general note: In ATP-based viability assays light output follows the ATP content of the culture.

Series [1] concerns HCC70 breast cancer xenograft (CDX). The experiment in a line: In vivo efficacy study, HCC70 breast cancer CDX model. To be noted: for Animal tolerance: BALB/c nude mice, HCC70 CDX. Further details: species or system BALB/c nude mice. The method, then: Experimental Example 6: In Vivo Efficacy Study
In vivo efficacy experiments were conducted on BALB/c nude mice subcutaneously implanted with human tumor cell line-based xenograft (CDX) derived from HCC70 breast cancer patients.
BALB/c nude mice, female, 6 to 8 weeks old, weighing approximately 19 to 23 g, were maintained in a special pathogen-free environment in individual ventilated cages (6 mice per cage). All cages, bedding, and water were disinfected before use. All animals had free access to a standard certified commercial laboratory diet. A total of 36 mice, purchased from the Laboratory Animal Department of the Shanghai Institute of Planned Parenthood Research (formerly Shanghai SIPPR-BK), were used for the study. Each mouse was injected with 10×10^6 HCC70 cells on the right side of the neck, with an injection volume of 0.2 mL, and the cell suspension was in a 1:1 ratio of PBS and Matrigel. When the average tumor volume reached approximately 179 mm^3, random grouping was performed, and dosing was initiated.
Tumor volume was measured twice a week with a two-dimensional caliper, and the volume was measured in mm^3 and calculated by the following equation: V=0.5 a×b^2, where a and b are the long and short diameters of the tumor, respectively.

Molecules are shown by their SMILES. Some results are limits rather than exact numbers.

Chain of CDK9-CyclinT1 (P50750 whole entry): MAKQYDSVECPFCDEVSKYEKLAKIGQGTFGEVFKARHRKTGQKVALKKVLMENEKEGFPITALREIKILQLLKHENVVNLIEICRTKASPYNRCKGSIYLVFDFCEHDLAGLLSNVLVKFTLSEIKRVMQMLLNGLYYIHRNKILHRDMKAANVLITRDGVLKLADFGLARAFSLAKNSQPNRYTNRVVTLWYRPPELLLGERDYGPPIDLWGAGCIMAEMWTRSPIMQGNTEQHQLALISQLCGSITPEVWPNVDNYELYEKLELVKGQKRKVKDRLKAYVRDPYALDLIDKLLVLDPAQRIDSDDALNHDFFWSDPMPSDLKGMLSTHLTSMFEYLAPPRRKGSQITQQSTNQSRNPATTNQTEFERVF
Chain of CDK9-CyclinT1 (O60563 whole entry partner): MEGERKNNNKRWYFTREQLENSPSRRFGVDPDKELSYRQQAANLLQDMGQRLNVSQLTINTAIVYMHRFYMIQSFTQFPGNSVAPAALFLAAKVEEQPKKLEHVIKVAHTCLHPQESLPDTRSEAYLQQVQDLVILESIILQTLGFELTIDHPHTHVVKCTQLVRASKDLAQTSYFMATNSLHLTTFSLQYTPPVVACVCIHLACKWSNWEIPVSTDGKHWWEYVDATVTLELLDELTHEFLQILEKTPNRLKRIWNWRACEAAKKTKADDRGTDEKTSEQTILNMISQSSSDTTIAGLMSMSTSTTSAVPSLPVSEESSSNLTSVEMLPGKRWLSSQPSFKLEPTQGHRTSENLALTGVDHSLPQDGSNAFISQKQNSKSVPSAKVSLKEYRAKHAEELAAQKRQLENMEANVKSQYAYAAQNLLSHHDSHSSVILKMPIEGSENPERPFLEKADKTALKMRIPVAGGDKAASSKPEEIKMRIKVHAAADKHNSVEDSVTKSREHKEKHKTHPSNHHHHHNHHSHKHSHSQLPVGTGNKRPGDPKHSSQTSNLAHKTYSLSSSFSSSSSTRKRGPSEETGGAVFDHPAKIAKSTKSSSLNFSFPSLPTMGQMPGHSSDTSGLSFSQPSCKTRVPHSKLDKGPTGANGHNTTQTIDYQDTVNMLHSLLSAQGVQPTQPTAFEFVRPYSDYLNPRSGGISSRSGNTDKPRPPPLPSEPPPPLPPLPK

With `CP(C)(=O)c1c2ccc3c(c[nH]c13)-c1nc(ncc1C(F)(F)F)N[C@H]1CCCN(CCCCNC2=O)C1` [Compound 5], the IC50 against CDK9-CyclinT1 was above 1000 nM. The IC50 in the series with HCC70 cells is 1 nM. In series [1] (dose 3 mg/kg), the Animal tolerance result is given as “Good”, the “Tumor volume Day 0” value is given as 179 mm^3, the “Tumor volume Day 7” value was determined as 260 mm^3 and the “Tumor volume Day 14” value came out at 305 mm^3. In series [1] (dose 3 mg/kg), the “Tumor volume Day 21” value turned out to be 230 mm^3.

`CP(C)(=O)c1c2ccc3c(c[nH]c13)-c1nc(ncc1C(F)(F)F)N[C@H]1CCCCN(CCCCNC2=O)C1` [Compound 6] displayed an IC50 on CDK9-CyclinT1 above 1000 nM. Further, the IC50 in the series with HCC70 cells was 1.8 nM. Also, in series [1] (dose 3 mg/kg), the Animal tolerance entry was “Good”, the “Tumor volume Day 0” value is reported as 179 mm^3, the “Tumor volume Day 7” value is recorded as 272 mm^3 and the “Tumor volume Day 14” value came out at 344 mm^3. For the same molecule, the “Tumor volume Day 21” value in series [1] (dose 3 mg/kg) is given as 403 mm^3.

As to `CN1CCCCN2CCCC[C@@H](C2)Nc2ncc(C(F)(F)F)c(n2)-c2c[nH]c3c(P(C)(C)=O)c(ccc23)C1=O` [Compound 3], the IC50 at CDK9-CyclinT1 is above 1000 nM; in the series on HCC70 cells it was 1.4 nM.

At CDK9-CyclinT1, `CN1CCCCN2CCC[C@@H](C2)Nc2ncc(C(F)(F)F)c(n2)-c2c[nH]c3c(P(C)(C)=O)c(ccc23)C1=O` [Formate of compound 1] yielded an IC50 of 723 nM. This molecule also showed an IC50 in the series with HCC70 cells below 1.5 nM. Moreover, in series [1] (dose 1.5 mg/kg), the Animal tolerance entry is recorded as “Good”, the “Tumor volume Day 0” value is 179 mm^3, the “Tumor volume Day 7” value came out at 273 mm^3 and the “Tumor volume Day 14” value is given as 178 mm^3. Besides, in series [1] (dose 1.5 mg/kg), the “Tumor volume Day 21” value was 105 mm^3.

Consider `CP(C)(=O)c1c2ccc3c(c[nH]c13)-c1nc(ncc1C(F)(F)F)N[C@H]1CCCN(CCCCCCO2)C1` [Compound 4], for which the IC50 against CDK9-CyclinT1 is above 1000 nM; in the series on HCC70 cells, 0.6 nM.

As usually defined, the IC50 is the concentration needed to halve the response being measured. Low readings indicate greater potency in that assay, high ones weaker potency in that assay.
